Assay results published in patent publication US9101634B2, “Application of 2, 3-dihydro-3-hydroxymethyl-6-amino-[1,4]-benzoxazine in preparation of drugs inducing embryonic stem cells to differentiate to vascular endothelial cells” (SHANDONG UNIVERSITY, priority 2010, dated 2015).
Entries after “also recorded” stand apart in the source; their conditions may differ.

What was measured:
[1] = test system: mouse embryonic stem cells; experiment: Influence on mouse embryonic stem cell morphology (inverted phase contrast microscope); format: cell-based; conditions: ten days
Procedure: The embryonic stem cells were evenly grown in a 24-well plate, a normal group was set after the cells adhered on the wall: the normal group was cultured under the condition of differentiation culture medium (after removal of leukemia inhibitory factor from normal culture medium); solvent control group: the group was cultured after DMSO was added under the culture condition of differentiation culture medium; experimental group: the group was cultured after 2,3-dihydro-3-hydroxymethyl-6-amino-[1,4]-benzoxazine with the concentration of 0.5 μM˜40 μM was added under the culture condition of differentiation culture medium. The culture conditions: 37° C., CO2 incubator box for cultivation. The culture medium should be replaced everyday in a timing mode, the morphological changes were observed under an inverted phase contrast microscope until the tenth day.
(§1) The embryonic stem cells were evenly grown in a 24-well plate according to density of 2×10^4 cells/well, DMEM (high glucose) containing leukemia inhibitory factor, L-glutamine, streptomycin, β-mercaptoethanol, non-essential amino acids, nucleotides and 15% PBS was used for culturing for 24 hours, the waste liquid was discarded after the cells adhered on the wall, and the cells were cleaned with 1×PBS. A normal group was set: the normal group was cultured under the culture condition that leukemia inhibitory factor was removed; solvent control group: the group was cultured after DMSO was added under the culture condition that leukemia inhibitory factor was removed; experimental group: the group was cultured after 2,3-dihydro-3-hydroxymethyl-6-amino-[1,4]-benzoxazine with the concentration of 0.5 μM, 1 μM, 5 μM, 10 μM, 20 μM, 30 μM and 40 μM was added under the culture condition that leukemia inhibitory factor was removed. The culture conditions: 37° C., CO2 incubator box for cultivation. The culture medium should be replaced everyday in a timing mode, and the cells were continuously cultured for ten days and then were observed under an inverted phase contrast microscope.

[2] = test system: vascular endothelial cell marker Flk-1 in embryonic stem cells; experiment: Detection of vascular endothelial cell marker Flk-1 (immunohistochemistry, laser scanning confocal microscopy); format: cell-based, mouse; conditions: induction for 10 days
Procedure: The embryonic stem cells which were induced with 2,3-dihydro-3-hydroxymethyl-6-amino-[1,4]-benzoxazine with the concentration of 0.5 μM˜40 μM for 5 days and 10 days were evenly grown in 48-well plate and cultured for 24 hours in CO2 incubation chamber at 37° C., after the cells adhered on the wall, immunohistochemistry and laser scanning confocal microscopy were used for observing the expression of endothelial cell markers—Flk-1 The normal group was set: the group was cultured in under the culture condition of differentiation culture medium; solvent control group: the group was cultured after DMSO was added under the culture condition of differentiation culture medium; experimental group: the group was cultured after 2,3-dihydro-3-hydroxymethyl-6-amino-[1,4]-benzoxazine with the concentration of 0.5 μM˜40 μM was added under the culture condition of differentiation culture medium.
as §1, with “48-well” for “24-well”, “and cultured for 24 hours with” for “according to density of 2×10^4 cells/well,”, “FBS,” for “PBS was used for culturing for 24 hours,”, “The” for “A”, “the” for “the normal”, “cultivation.” for “cultivation. The culture medium should be replaced everyday in a timing mode, and the cells were continuously cultured for ten days and then were observed under an inverted phase contrast microscope.”

[3] = test system: vascular endothelial marker CD31 in embryonic stem cells; experiment: Detection of vascular endothelial cell marker CD31 (Western blot); format: cell-based, mouse; conditions: induction for 10 days
Procedure: The embryonic stem cells induced by 2,3-dihydro-3-hydroxymethyl-6-amino-[1,4]-benzoxazine with the concentration of 0.5 μM˜40 μM for ten days were cracked, and total cellular protein was distilled. The solvent control group was set: the group was cultured after DMSO was added under the culture condition of differentiation culture medium; experimental group: the group was cultured after 2,3-dihydro-3-(hydroxymethyl)-6-Amino-[1,4]-benzoxazine with the concentration of 0.5 μM˜40 μM under the culture condition of differentiation culture medium. The extracted embryonic stem cells were used for Western blot experiment to detect the expression of vascular endothelial marker CD31.
The embryonic stem cells were evenly grown in a 6-well plate according to the density of 2×10^4 cells/well, and cultured for 24 hours with DMEM (high glucose) containing leukemia inhibitory factor, L-glutamine, streptomycin, β-mercaptoethanol, non-essential amino acids, nucleotides and 15% FBS, the waste liquid was discarded after the cells adhered on the wall, and the cells were cleaned with 1×PBS. The normal group was set: the group was cultured under the culture condition that leukemia inhibitory factor was removed; solvent control group: the group was cultured after DMSO was added under the culture condition that leukemia inhibitory factor was removed; experimental group: the group was cultured after 2,3-dihydro-3-hydroxymethyl-6-amino-[1,4]-benzoxazine with the concentration of 0.5 μM, 1 μM, 5 μM, 10 μM, 20 μM, 30 μM and 40 μM was added under the culture condition that leukemia inhibitory factor was removed. The culture conditions: 37° C., CO2 incubator box for cultivation. The culture medium should be replaced everyday, and the cells should be continuously cultured for ten days. The total protein of each group of cells was distilled with cell lysate. The protein samples were denatured for 5 min at 100° C., glue was removed then, the protein was transferred on the PVDF film after completion, the PBS/t solution containing 5% skimmed milk powder was used for sealing for one hour at room temperature. The PBS/t solution containing 3% bovine serum almbumin was used for diluting the primary anti-body (1:5000), and incubated overnight with the PVDF film containing target protein at 4° C. PBS/t was used for dipping the film twice 5 min each time. PBS was used for diluting the secondary antibody (1:5000) and the cells were incubated for one hour at room temperature, the film was dipped with PSB for three times and 5 min each time. ECL chromogenic reagent was evenly coated on the PVDF film containing target protein ad reacted for five minutes, excessive Chromogenic reagent was removed, and the cells were placed together with the film in a dark box for five minutes to finish film colour development.

embryonic stem cells [4] = experiment: Detection of in vitro vascularization on Matrigel; format: cell-based, mouse; conditions: cells induced for ten days
Procedure: The embryonic stem cells after induction for ten days were seeded in 24-well cell culture plate paved with Matrigel in advance, the detection culture system was replaced for the cells and placed at 37° C., the cells were cultured at CO2 incubator for 4 hours to 72 hours, and the vascularization conditions were regularly observed. The normal group was set: embryonic stem cells which were cultured for ten days under the culture conditions of differentiation culture medium; solvent control group: embryonic stem cells which were cultured for ten days after DMSO was added under the culture condition of differentiation culture medium. Experimental group: embryonic stem cells which were cultured for ten days after 2,3-dihydro-3-hydroxymethyl-6-amino-[1,4]-benzoxazine was added under the culture condition of differentiation culture medium.
The embryonic stem cells were evenly grown in a 24-well plate according to the density of 2×10^4 cells/well and cultured for 24 hours with DMEM (high glucose) containing leukemia inhibitory factor, L-glutamine, streptomycin, β-mercaptoethanol, non-essential amino acids, nucleotides and 15% FBS, the waste liquid was discarded after the cells adhered on the wall, and the cells were cleaned with 1×PBS. […]

embryonic stem cells [5] = experiment: Function detection of phagocytosis of Dil-Ac-LDL; format: cell-based, mouse; conditions: cells induced for ten days, six hours with Dil-Ac-LDL
Procedure: The embryonic stem cells after induction for ten days were seeded in 24-well paved with gelatin, placed at 37° C., and cultured in CO2 incubator. After the cells adhered on the wall, the Dil-Ac-LDL diluted with medium culture was added into the culture plates, placed at 37° C., and cultured in CO2 incubator for six hours. The normal group was set: embryonic stem cells which were cultured for ten days under the culture condition of differentiation culture medium; Solvent control group: the embryonic stem cells which were cultured for ten days after DMSO was added under the culture condition of differentiation culture medium; experimental group: the embryonic stem cells which were cultured for ten days after 2,3-dihydro-3-hydroxy methyl-6-amino-[1,4]-benzoxazine with the concentration of 0.5 μM˜40 μM was added under the culture condition of differentiation culture medium. […]
The embryonic stem cells were evenly grown in a 24-well plate according to the density of 2×10^4 cells/well and cultured for 24 hours with DMEM (high glucose) containing leukemia inhibitory factor, L-glutamine, streptomycin, β-mercaptoethanol, non-essential amino acids, nucleotides and 15% FBS, the waste liquid was discarded after the cells adhered on the wall, and the cells were cleaned with 1×PBS. […] The conditions of phagocytosing Dil-Ac-LDL were detected with laser confocal microscopy.

[6] = test system: mouse embryonic stem cells; experiment: Induction of mouse embryonic stem cells to differentiate to vascular endothelial cells (overall conclusion); format: cell-based; conditions: for differentiation of mouse embryonic stem cells to vascular endothelial cells: five to ten days, differentiation culture medium
Excerpt: Cell biology and molecular biology methods were adopted to study and validate the function of the 2,3-dihydro-3-hydroxymethyl-6-amino-[1,4]-benzoxazine of the invention to induce embryonic stem cells to differentiate to vascular endothelial cells with the following experiments.

[7] = 10 μM, listed as 2 3-dihydro-3-hydroxymethyl-6-amino-[1,4]-benzoxazine

Nc1ccc2c(c1)NC(CO)CO2 (centres unmarked) [2,3-dihydro-3-hydroxymethyl-6-amino-[1,4]-benzoxazine]
cell morphology change to vascular endothelial cell form ([1]; 10 μM, differentiation culture medium without leukemia inhibitory factor): significant changes; also recorded: prominently prompt the embryonic stem cells to show the vascular endothelial form | cell morphology change versus normal and solvent control groups ([1]; 1˜20 μM, differentiation culture medium without leukemia inhibitory factor): changed compared with the cell morphology of the control group; also recorded: changed compared with the cell form of the control group | cell form changes of other treatment groups ([1]; other concentrations of the 0.5 μM˜40 μM range (outside 1˜20 μM)): relatively weak | expression of vascular endothelial cell marker Flk-1 ([2]; 1 μM˜20 μM): increased | expression of vascular endothelial cell marker Flk-1 ([2]; 10 μM): more obvious | expression of vascular endothelial cell marker Flk-1 [2, 7]: stronger Flk-1 expression | expression of vascular endothelial cell marker CD31 ([3]; 1 μM˜20 μM, versus solvent control, listed as 2 3-dihydro-3-hydroxymethyl-6-amino-[1,4]-benzoxazine): increased | expression of vascular endothelial cell marker CD31 ([3]; 1 μM˜20 μM, versus solvent control, listed as 2,3-dihydro-3-(hydroxymethyl)-6-amino-[1,4]-benzoxazine): increased expression of CD31 | expression of vascular endothelial cell marker CD31 ([3]; 10 μM): more significant | expression of vascular endothelial cell marker CD31 [3, 7]: stronger CD31 expression | formation of vessel-like structures on Matrigel (embryonic stem cells [4]; 10 μM): particularly prominent vessel-like structures; also recorded: prominently form blood vessels in vitro; also recorded: prominently form blood vessels on Matrigel | formation of vessel-like structures on Matrigel (embryonic stem cells [4]; 1˜20 μM): form varying degrees of cavity-like vessel-like structures | phagocytosis of Dil-Ac-LDL (embryonic stem cells [5]; 1 μM˜20 μM): can phagocytose Dil-Ac-LDL | phagocytosis of Dil-Ac-LDL (embryonic stem cells [5]; 10 μM): particularly evident; also recorded: prominent effect of phagocytosing Dil-Ac-LDL; also recorded: prominently phagocytose Dil-Ac-LDL | optimal concentration for inducing differentiation to vascular endothelial cells [6]: 10 µM | differentiation of mouse embryonic stem cells to vascular endothelial cells ([6]; 1 μM˜20 μM): prominently promote differentiation of mouse embryonic stem cells to vascular endothelial cells | differentiation of mouse embryonic stem cells to vascular endothelial cells ([6]; 10 μM): particularly prominent
